Assay [1] has as its target PKA (Bos taurus, UniProt P00517). The experiment in a line: PKA assays at different ATPγS concentrations on a microchip. The assay is classed as biochemical. The settings on record: read-out: Km (Michaelis-Menten constant for the co-factor). On the procedure:
(§1) A typical reaction mixture (50 μl) contained 20 mM HEPES pH 7.5, 10 mM MgCl2, 50 μM fluorescein labeled Kemptide (Research Genetics, Huntsville, Ala., USA), 500 μM ATPγS (Sigma, St. Louis, Mo., USA, #A-1388), and 1 μl of the catalytic subunit of cAMP dependent protein kinase A (Promega Corp., Madison, Wis., USA, #V5161). The approximate final concentration of the enzyme was 700 nM. […] The mixture was incubated at room temperature for 15 min and the reaction terminated by the addition of EDTA to 45 mM. As a negative control, EDTA was added to one of the reaction mixtures before the addition of the kinase. The extent of thiophosphorylation was then analyzed by capillary electrophoresis with fluorescence detection either on a Beckman P/ACE System 5500 instrument, using a 50 μm fused silica capillary with 50 mM borate, pH 8.6 as the separation buffer, or on a microfabricated chip as described in Cohen et al., Anal. Chem. 273:89-97 (1999). Substrate and product peak areas were integrated and the extent of substrate phosphorylation was determined from their ratio.
Following a 15-min incubation, the reactions were stopped by the addition of EDTA, treated with iodoacetyl-LC-biotin, and analyzed by fluorescence polarization in the presence of streptavidin. […]

The target in assay [2] is T1, catalytic subunit of cAMP dependent protein kinase A (PKA) (Bos taurus, UniProt P00517).
T1 construct: purchased Promega Corp. V5161
Kind of assay: Homogeneous PKA kinase assay: thiophosphorylation, biotinylation, fluorescence polarization with streptavidin. The assay is classed as biochemical. As for the experimental part: as §1, with “ratio. […] The outcome of the biotinylation reaction could be determined at this point by capillary electrophoresis as described above, however, this is not required, nor is it preferred. […] An aliquot (1 μl) of the biotinylation reaction from step B was diluted in 400 μl of 50 mM HEPES, pH 7.4 and its fluorescence polarization measured. […]” for “ratio.”

`Nc1ncnc2c1ncn2[C@@H]1O[C@H](COP(=O)(O)OP(=O)(O)OP(O)(O)=S)[C@@H](O)[C@H]1O` [ATPγS]: in assay [1], the Km was ~6 µM. In the case of `O=S(=O)(NCCNC/C=C/c1ccc(Br)cc1)c1cccc2cnccc12` [H-89], the IC50 in assay [2] (H-89 0.5-10 μM, 500 μM ATPγS, 50 μM fluorescein labeled Kemptide, 15-min incubation at room temperature, estimated from substrate conversion) was ~5000 nM. In addition, the Ki in assay [2] (calculated from IC50=Ki(1+[S]/Km), ATPγS 500 μM, Km about 6 μM) was ~60 nM.

One may read the Km as the substrate concentration at which the rate is half of its maximum. As a reminder, the IC50 is the point on the concentration scale where inhibition reaches its midpoint. In general, Ki refers to a dissociation constant, usually derived from enzyme kinetics or from competition with a known ligand.

The values are drawn from patent publication US6498005B1, “Homogeneous assay methods” (Caliper Technologies Corp., priority 1998, dated 2002).
